Measurements as given in patent US12209080B2, “Polymorphic forms of kinase inhibitor compound, pharmaceutical composition containing same, preparation method therefor and use thereof” (EQUINOX SCIENCES, LLC, priority 2016, dated 2025).
Values after ≈ are worked out from the molar mass of the structure shown. Read-outs that look alike come from different tables or passages of the source.

Legend:
[1] = Tissue accumulation experiment in tumor-bearing mice; type: in vivo, BALB/cA nude mice; set-up: content in Tumor / content in Liver / content in Kidney / content in Heart / content in Lung / content in Muscle / content in Brain: unit not given here; settings: 40 mg/kg for 21 days (crystalline form 1 twice a day, sunitinib once a day); 4 hours after administration on day 22
Protocol: Human colon cancer H-29 cells were implanted into the armpits of BALB/cA nude mice. Seven days after the implantation of H-29 cells, 8 female mice were administered with the crystalline form 1 (twice a day) at 40 mg/kg or sunitinib at 40 mg/kg (once a day). The drug administration was continuous for 21 days. Plasma, tissue and tumor samples were collected for analysis 4 hours after the administration on the 22nd day morning.

[2] = Solubility of crystalline forms 1 and 2 in various media; type: physicochemical
Text: (§1) The moisture content, solubility and dissolution rate of the crystalline forms 1 and 2 were detected using the methods described above. The results are shown in Table 21, which indicate that the solubility, dissolution, and moisture content (total pharmaceutical properties) of the crystalline form 1 are higher than that of the crystalline form 2. Moreover, the crystalline forms 1 and 2 have the highest solubility in methanol.

[3] = Stability of the crystalline forms (HPLC, XRD, DSC); type: physicochemical; settings: for HPLC Maximum single impurity %: retention time (min) in brackets; for crystalline form and melting point by XRD and DSC: sealed 80° C. 24 hours, open dish 25° C./60% RH and 40° C./75% RH for 7 days
Protocol: Experimental conditions: the samples were sealed and placed at 80° C. for 24 hours, and then placed in an open dish at 25° C./60% RH (relative humidity) and 40° C./75% RH for 7 days. Detection method: HPLC (only for the starting samples and samples placed at 80° C. for 24 hours), XRD, DSC.
In addition, the long-term stabilities of the crystalline form 1 for 12 months, 24 months, 36 months, and 48 months at 25° C./60% RH were also investigated.

[4] = Dissolution rate of crystalline forms 1 and 2; type: physicochemical
Text: as §1

[5] = Pharmacokinetic experiment, oral administration; type: in vivo, Sprague Dawley rats; settings: rat, 10 mg/kg, suspension in 0.5% CMC
Protocol: Twelve Sprague Dawley rats with weight of 230-250 g were randomly divided into 2 groups, wherein each group consisted of 3 males and 3 females. Crystalline forms 1 and 2 were separately prepared as suspensions in 0.5% carboxymethylcellulose (CMC). The rats were fasted for 12 hours with free access to water and then orally administered at a dose of 10 mg/kg. Blood samples (0.2-0.3 ml) before and after 15, 30, 60, 120, 240, 360, 480, 720, 1440 minutes of the oral administration were collected in heparin anticoagulation tubes, which were then centrifuged to obtain plasma. The plasma was stored at −20° C., followed by analysis using API 4000 MS in conjunction with a HPLC unit. The pharmacokinetic parameters Cmax and AUC were calculated according to the determined plasma concentrations and summarized in Table 22.

[6] = Thermodynamic stability experiment in solvents at 60° C. (XRD); type: physicochemical; settings: one day
Protocol: The crystalline form 1, crystalline form 2, crystalline form 3 and crystalline form 7 of the compound of formula I were mixed with acetone, ethyl acetate, methanol, water and tetrahydrofuran respectively, and then kept at 60° C. for one day for the investigation of the thermodynamic stability of each crystalline form. Insoluble solid was recovered by filtration and analyzed by XRD. Analysis conditions: Shimadzu XRD-6000, CuK source (1.54056 A) 40 kV, 30 mA; detection angle: 5-50°, speed: 5°/min.

[7] = Solubility determination in water by HPLC; type: physicochemical; settings: suspension in water, 25° C.
Protocol: HPLC detection was performed using the crystalline form 1 as a standard, with its concentration of 204.2 μg*mL^−1 and its content set as 100%, and the detection was performed 7 times. The average peak area was 159.691 mAU*min (retention time was 7.4 min).

[8] = Dynamic vapor sorption (DVS) / moisture absorption; type: physicochemical
Protocol: (4) Dynamic Water Adsorption (DVS), TA Instruments Q5000 TGA; controlling software: Thermal Advantage; analysis software: Universal Analysis; sample plate: platinum crucible; amount of the sample to be detected: 1-10 mg; protective gas: nitrogen; gas flow fate: 10 mL/min; detection method: equilibration at 25° C., humidity: 0%, isothermal treatment: 90 min, weight change to be detected: from 0% RH to 80% RH;
as §1

[9] = acetone, ethyl acetate, methanol or water, conversion not complete in methanol

Structure (SMILES): CCN(CC)CCNC(=O)c1c(C)[nH]c(/C=C2\C(=O)Nc3ccc(F)cc32)c1C [Sunitinib, reference compound]
- content in Brain [1]: 333.9
- content in Heart [1]: 3,881.2
- content in Kidney [1]: 14,852.0
- content in Liver [1]: 14,816.6
- content in Lung [1]: 15,713.5
- content in Muscle [1]: 1,483.2
- content in Plasma [1]: 261.3
- content in Tumor [1]: 27,137.2

Structure (SMILES): Cc1[nH]c(/C=C2\C(=O)Nc3ccc(F)cc32)c(C)c1C(=O)N[C@H]1CCN(C(=O)N(C)C)C1 [crystalline form 2, 5-[5-fluoro-2-oxo-1,2-dihydro-indole-(3Z)-ylidenemethyl]-2,4-dimethyl-1H-pyrrole-3-carboxylic acid ((S)-1-dimethylcarbamoyl-pyrrolidin-3-yl)-amide]
- Solubility ([2]; 1% Tween 80): 20 µg/mL (≈ 45.5 µM)
- Solubility ([2]; 1% sodium lauryl sulfate): 580 µg/mL (≈ 1320 µM)
- Solubility ([2]; 2% sodium lauryl sulfate): 950 µg/mL (≈ 2160 µM)
- Solubility ([2]; PEG 400, organic solvent or mixture, thermodynamic from solid, PEG 400, read-out: Solubility): 2670 µg/mL (≈ 6080 µM)
- Solubility ([2]; acetonitrile): 270 µg/mL (≈ 614 µM)
- Solubility ([2]; aqueous solution with pH of 1.0-7.5): 0.0048 to 0.04 µg/mL
- Solubility ([2]; ethanol, organic solvent or mixture, thermodynamic from solid, ethanol, read-out: Solubility): 1940 µg/mL (≈ 4410 µM)
- Solubility ([2]; glycerin): 120 µg/mL (≈ 273 µM)
- Solubility ([2]; methanol): 3500 µg/mL (≈ 7960 µM)
- HPLC Purity % ([3]; 0 day (starting sample)): 97.76%
- HPLC Maximum single impurity % ([3]; 0 day (starting sample)): 2.15 (4.73) %
- crystalline form and melting point by XRD and DSC [3]: substantially unchanged
- HPLC Purity % ([3]; sealed, 80° C./24 h): 98.95%
- HPLC Maximum single impurity % ([3]; sealed, 80° C./24 h): 0.96 (4.73) %
- Internal dissolution rate [4]: 0.0062 mg/(min · cm^2)
- AUC(0-t) ([5]; female, Sprague Dawley, plasma, po, female 1, read-out: AUC(0-t)): 4340 ng·h/mL
- Cmax ([5]; female, Sprague Dawley, plasma, po, female 1, read-out: Cmax): 317 ng/mL
- AUC(0-t) ([5]; oral 10 mg/kg, average value): 3320.9 ng·h/mL
- Cmax ([5]; oral 10 mg/kg, average value): 313.8 ng/mL
- AUC(0-t) ([5]; oral 10 mg/kg, female 2): 3899.2 ng·h/mL
- Cmax ([5]; oral 10 mg/kg, female 2): 451.4 ng/mL
- AUC(0-t) ([5]; oral 10 mg/kg, female 3): 7850.6 ng·h/mL
- Cmax ([5]; oral 10 mg/kg, female 3): 614.6 ng/mL
- AUC(0-t) ([5]; oral 10 mg/kg, male 1): 1557.1 ng·h/mL
- Cmax ([5]; oral 10 mg/kg, male 1): 204.4 ng/mL
- AUC(0-t) ([5]; oral 10 mg/kg, male 2): 925.0 ng·h/mL
- Cmax ([5]; oral 10 mg/kg, male 2): 114.7 ng/mL
- AUC(0-t) ([5]; oral 10 mg/kg, male 3): 1349.3 ng·h/mL
- Cmax ([5]; oral 10 mg/kg, male 3): 180.4 ng/mL
- crystalline form recovered (XRD) [6, 9]: converted to crystalline form 2
- crystalline form recovered (XRD) ([6]; tetrahydrofuran (THF)): to crystalline form 3
- concentration (solubility in water) ([7]; 0.5 hours): 0.19 µg/mL
- concentration (solubility in water) ([7]; 4 hours): 0.26 µg/mL
- Moisture absorption ([8]; RH 50%): 0.064%
- Moisture absorption ([8]; RH 80%): 0.112%

Structure (SMILES): Cc1[nH]c(/C=C2\C(=O)Nc3ccc(F)cc32)c(C)c1C(=O)N[C@H]1CCN(C(=O)N(C)C)C1 [crystalline form 3, 5-[5-fluoro-2-oxo-1,2-dihydro-indole-(3Z)-ylidenemethyl]-2,4-dimethyl-1H-pyrrole-3-carboxylic acid ((S)-1-dimethylcarbamoyl-pyrrolidin-3-yl)-amide]
- HPLC Purity % ([3]; 0 day (starting sample)): 99.14%
- HPLC Maximum single impurity % ([3]; 0 day (starting sample)): 0.76 (4.73) %
- crystalline form and melting point by XRD and DSC [3]: substantially unchanged
- HPLC Purity % ([3]; sealed, 80° C./24 h): 98.32%
- HPLC Maximum single impurity % ([3]; sealed, 80° C./24 h): 1.58 (4.73) %
- crystalline form recovered (XRD) [6, 9]: converted to crystalline form 2
- crystalline form recovered (XRD) ([6]; tetrahydrofuran (THF)): to crystalline form 3
- concentration (solubility in water) ([7]; 0.5 hours): 0.58 µg/mL
- concentration (solubility in water) ([7]; 4 hours): 0.77 µg/mL

Structure (SMILES): Cc1[nH]c(/C=C2\C(=O)Nc3ccc(F)cc32)c(C)c1C(=O)N[C@H]1CCN(C(=O)N(C)C)C1 [crystalline form 5, 5-[5-fluoro-2-oxo-1,2-dihydro-indole-(3Z)-ylidenemethyl]-2,4-dimethyl-1H-pyrrole-3-carboxylic acid ((S)-1-dimethylcarbamoyl-pyrrolidin-3-yl)-amide]
- HPLC Purity % ([3]; 0 day (starting sample)): 99.86%
- HPLC Maximum single impurity % ([3]; 0 day (starting sample)): 0.05 (8.82) %
- crystalline form and melting point by XRD and DSC [3]: substantially unchanged
- HPLC Purity % ([3]; sealed, 80° C./24 h): 98.80%
- HPLC Maximum single impurity % ([3]; sealed, 80° C./24 h): 1.10 (4.73) %
- concentration (solubility in water) ([7]; 0.5 hours): 1.66 µg/mL
- concentration (solubility in water) ([7]; 4 hours): 0.42 µg/mL

Structure (SMILES): Cc1[nH]c(/C=C2\C(=O)Nc3ccc(F)cc32)c(C)c1C(=O)N[C@H]1CCN(C(=O)N(C)C)C1 [crystalline form 6, 5-[5-fluoro-2-oxo-1,2-dihydro-indole-(3Z)-ylidenemethyl]-2,4-dimethyl-1H-pyrrole-3-carboxylic acid ((S)-1-dimethylcarbamoyl-pyrrolidin-3-yl)-amide]
- HPLC Purity % ([3]; 0 day (starting sample)): 99.09%
- HPLC Maximum single impurity % ([3]; 0 day (starting sample)): 0.80 (4.73) %
- crystalline form and melting point by XRD and DSC [3]: substantially unchanged
- HPLC Purity % ([3]; sealed, 80° C./24 h): 99.12%
- HPLC Maximum single impurity % ([3]; sealed, 80° C./24 h): 0.78 (4.73) %
- concentration (solubility in water) ([7]; 0.5 hours): 0.29 µg/mL
- concentration (solubility in water) ([7]; 4 hours): 0.37 µg/mL

Structure (SMILES): Cc1[nH]c(/C=C2\C(=O)Nc3ccc(F)cc32)c(C)c1C(=O)N[C@H]1CCN(C(=O)N(C)C)C1 [crystalline form 7, 5-[5-fluoro-2-oxo-1,2-dihydro-indole-(3Z)-ylidenemethyl]-2,4-dimethyl-1H-pyrrole-3-carboxylic acid ((S)-1-dimethylcarbamoyl-pyrrolidin-3-yl)-amide]
- HPLC Purity % ([3]; 0 day (starting sample)): 99.28%
- HPLC Maximum single impurity % ([3]; 0 day (starting sample)): 0.58 (4.73) %
- crystalline form and melting point by XRD and DSC [3]: substantially unchanged
- HPLC Purity % ([3]; sealed, 80° C./24 h): 98.70%
- HPLC Maximum single impurity % ([3]; sealed, 80° C./24 h): 1.19 (4.73) %
- crystalline form recovered (XRD) [6, 9]: converted to crystalline form 2
- crystalline form recovered (XRD) ([6]; tetrahydrofuran (THF)): to crystalline form 3
- concentration (solubility in water) ([7]; 0.5 hours): 0.52 µg/mL
- concentration (solubility in water) ([7]; 4 hours): 0.61 µg/mL
